Measured values taken from patent EP1388586A2, “Identification of broadly reactive DR restricted epitopes” (priority 1998, dated 1999).
Like-named read-outs stand apart in the source and are kept apart here. Square brackets hold non-standard residues; d marks the D form. Ends that are not written are not given here. Peptide text beside a SMILES is read from it.

Key:
[1] = target: T1, DRB1*0101 (DR1) (Homo sapiens, UniProt P01903+P01911, A100R/D57E/F55L/F60I/F76Y/I96L/L162R/M171V/P40L/Q125E/R42F/V115G/Y59C); assay: Class II peptide-binding assay, DR1;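 further: competition assay: unlabeled test peptides inhibit binding of a radiolabeled probe peptide to purified DR, with half-maximal inhibition taken as an approximate dissociation constant Kd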
T1 construct: used as sources of human HLA class II molecules; endogenous in cells; host or cells: LG2 (EBV-transformed homozygous B cell line)
Procedure: (§1) Class II peptide-binding assays. […] These assays were chosen as to be representative of the most common DR alleles.
(§2) Radiolabeled peptides were iodinated using the chloramine-T method. […] In appropriate stoichiometric conditions, the IC50 of an unlabeled test peptide to the purified DR is a reasonable approximation of the affinity of interaction (Kd). Peptides were tested in two to four completely independent experiments. […] Final detergent concentration in the incubation mixture was 0.05% Nonidet P-40. Assays were performed at pH 7.0 with the exception of DR3, which was performed at pH 4.5, and DRw53, which was performed at pH 5.0.
(§3) All subsequent inhibition and direct binding assays were the performed using these class II concentrations.

[2] = target: T2, DRB1*1101 (DR5w11) (Homo sapiens, UniProt P01903+P01911, A100R/A169T/A87E/I96F/K41T/L162R/M171V/P40S/Q125H/Q178H/Q39Y/Q99D/R42S/S66Y/T262R/V115G/W38E); assay: Class II peptide-binding assay, DR5w11;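 further: competition by unlabeled test peptide against iodinated probe peptide binding to affinity-purified HLA-DR, class II amount titrated beforehand, half-maximal inhibitory concentration read as approximate Kd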
T2 construct: used as sources of human HLA class II molecules; endogenous in cells; host or cells: SWEIG (EBV-transformed homozygous B cell line)
T2 sequence (P01903 26-254, other chains not shown): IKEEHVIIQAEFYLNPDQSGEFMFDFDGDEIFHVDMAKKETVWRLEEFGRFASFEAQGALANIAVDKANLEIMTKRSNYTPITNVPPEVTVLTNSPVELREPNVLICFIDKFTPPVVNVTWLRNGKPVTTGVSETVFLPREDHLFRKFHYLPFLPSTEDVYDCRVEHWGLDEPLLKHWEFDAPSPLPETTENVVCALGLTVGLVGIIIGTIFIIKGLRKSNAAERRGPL

[3] = target: T3, DRB1*0401 (DR4w4) (Homo sapiens, UniProt P01903+P01911, A100K/A169T/F76Y/I96L/K127E/L162R/M171V/N62H/P40V/Q125Y/R42H/S133A/S149N/S66Y/V115G/V209L/W38E); assay: Class II peptide-binding assay, DR4w4;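 further: unlabeled test peptides compete with a radiolabeled probe peptide for binding to affinity-purified HLA-DR, with DR amount titrated to capture a small fraction of label, IC50 approximating Kd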
T3 construct: used as sources of human HLA class II molecules; endogenous in cells; host or cells: PREISS (EBV-transformed homozygous B cell line)

[4] = target: DRB1*0701 (DR7) (Homo sapiens, UniProt P01903+P01911, A100R/A102G/A103Q/D57E/D86V/E43K/F76Y/K127E/L162R/M171V/P40G/Q125H/Q99D/R33Q/R42Y/R54Q/S133A/S66F/T210M/V115G/Y107V/Y59L/Y89S); assay: Class II peptide-binding assay, DR7;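 further: unlabeled peptides compete with an iodinated probe peptide for binding to affinity-purified HLA-DR at neutral pH, DR amount titered to bind a small tracer fraction, IC50 approximating Kd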
Procedure: as §1, §2, §3

[5] = target: T4, DRB5*0101 (DR2w2a) (Homo sapiens, UniProt P01903+Q30154); assay: Class II peptide-binding assay, DR2w2a (DR2w2B2);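 further: competitive binding assay: unlabeled peptide inhibiting binding of a radiolabeled probe peptide to purified DR molecules at pH 7.0, IC50 approximating Kd, lower means stronger binding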
T4 construct: used as sources of human HLA class II molecules; endogenous in cells; host or cells: GM3107 (EBV-transformed homozygous B cell line)
Procedure: as §1, §2, §3

[6] = target: T5, DRB1*0301 (DR3w17) (Homo sapiens, UniProt P01903+P01911, A100K/A102G/A103R/A169T/F55Y/I96L/K41T/L162R/M171V/P40S/Q125H/Q178H/Q39Y/R42S/S66N/T106N/T262R/W38E/Y61H); assay: Class II peptide-binding assay, DR3 (pH 4.5);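 further: unlabeled peptide competing with a radiolabeled probe peptide for binding to affinity-purified HLA-DR3, IC50 regarded as an approximation of Kd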
T5 construct: used as sources of human HLA class II molecules; endogenous in cells; host or cells: MAT (EBV-transformed homozygous B cell line)
T5 sequence (P01903 26-254, other chains not shown): as above
Procedure: as §1
In appropriate stoichiometric conditions, the IC50 of an unlabeled test peptide to the purified DR is a reasonable approximation of the affinity of interaction (Kd). Peptides were tested in two to four completely independent experiments. […] Final detergent concentration in the incubation mixture was 0.05% Nonidet P-40. Assays were performed at pH 7.0 with the exception of DR3, which was performed at pH 4.5, and DRw53, which was performed at pH 5.0.
as §3

[7] = target: T6, DRB10404 (DR4w14) (Homo sapiens, UniProt P01903+P01911, A100R/A169T/F76Y/I96L/K127E/L162R/M171V/N62H/P40V/Q125Y/R42H/S133A/S149N/S66Y/V209L/W38E); assay: Class II peptide-binding assay, DR4w14;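 further: unlabeled peptides compete with a radiolabeled probe for binding to affinity-purified HLA-DR, neutral pH, class II amount titrated to bind a small fraction of label, IC50 approximates Kd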
T6 construct: used as sources of human HLA class II molecules; endogenous in cells; host or cells: BIN40 (EBV-transformed homozygous B cell line)

[8] = read-out: DR1 nM (In IC50 Format), purified HLA DR1
[9] = read-out: DR5w11 nM (In IC50 Format), purified HLA DR5w11
[10] = read-out: DR4w4 nM (In IC50 Format), purified HLA DR4w4
[11] = read-out: DR7 nM (In IC50 Format), purified HLA DR7
[12] = read-out: DR2w2B2 nM (In IC50 Format), purified HLA DR2w2β2
[13] = read-out: DR3 nM (In IC50 Format), purified HLA DR3
[14] = read-out: DR4w14 nM (In IC50 Format), purified HLA DR4w14
[15] = read-out: DR1 nM, Table VIII, In IC50 Format
[16] = read-out: DR5w11 nM, Table VIII, In IC50 Format
[17] = read-out: DR4w4 nM, Table VIII, In IC50 Format
[18] = read-out: DR7 nM, Table VIII, In IC50 Format
[19] = read-out: DR2w2B2 nM, Table VIII, In IC50 Format
[20] = read-out: DR3 nM, Table VIII, In IC50 Format
[21] = read-out: DR4w14 nM, Table VIII, In IC50 Format
[22] = read-out: In IC50 Format DR1, Table VIII
[23] = read-out: In IC50 Format DR5w11, Table VIII
[24] = read-out: In IC50 Format DR4w4, Table VIII
[25] = read-out: In IC50 Format DR7, Table VIII
[26] = read-out: In IC50 Format DR2w2β2, Table VIII
[27] = read-out: In IC50 Format DR3, Table VIII
[28] = read-out: In IC50 Format DR4w14, Table VIII

Row | Molecule | IC50 [1, 8] [nM] | IC50 [2, 9] [nM] | IC50 [3, 10] [nM] | IC50 [4, 11] [nM] | IC50 [5, 12] [nM] | IC50 [6, 13] [µM] | IC50 [7, 14] [nM] | IC50 [1, 22] [nM] | IC50 [2, 23] [nM] | IC50 [3, 24] [nM] | IC50 [4, 25] [nM] | IC50 [5, 26] [nM] | IC50 [6, 27] [µM] | IC50 [7, 28] [nM] | also measured
1 | LVHSSNNFGAILSSTNVGS [Peptide 735.04] | 161 | 1250 | 11 | 961 | 5000 | 15.8 | 12.5 |  |  |  |  |  |  |  | 
2 | YASFVSQTAQRLFY-NH2 [Peptide 717.03] | 1.9 | 2500 | 11 | 25 | 8 | 15.8 | 6250 |  |  |  |  |  |  |  | 
3 | CC[C@H](C)[C@H](NC(=O)[C@@H](NC(=O)[C@@H](NC(=O)[C@H](CCC(=O)O)NC(=O)[C@H](CCCNC(=N)N)NC(=O)CN)[C@@H](C)O)C(C)C)C(=O)N[C@@H](CCC(=O)O)C(=O)N[C@@H](Cc1ccc(O)cc1)C(=O)N[C@@H](CC(C)C)C(=O)N[C@H](C(=O)N[C@@H](CO)C(=O)N[C@@H](Cc1ccccc1)C(=O)NCC(=O)N[C@H](C(=O)N[C@@H](Cc1c[nH]c2ccccc12)C(=O)O)C(C)C)C(C)C [Peptide 802.04] | 12.8 | 1540 | 833 | 67.6 | 1330 | 16.7 | 32.3 |  |  |  |  |  |  |  | 
4 | TSATQRLANSLVHSSNNFG [Peptide 735.02] | 111 | 130 | 5.4 | 373 | 10000 | 33.3 | 13.2 |  |  |  |  |  |  |  | 
5 | DTVKLMYKGQPMTFRLLLV [Peptide 866.01] |  |  |  |  |  |  |  |  |  |  |  |  |  |  | IC50 [1, 15]: 23 nM; IC50 [2, 16]: 169 nM; IC50 [3, 17]: 176 nM; IC50 [4, 18]: 3570 nM; IC50 [5, 19]: 7.7 nM; IC50 [6, 20]: 42.9 µM; IC50 [7, 21]: 10000 nM
6 | FFKNIVTPRFFKNIVTPR [Peptide 613.03] |  |  |  |  |  |  |  | 200 | 1670 | 4500 | 272 | 188 | 75 | 2000 | 
7 | KIAKMEKASSVFNVVNS [Peptide 526.01] |  |  |  |  |  |  |  | 35.7 | 64.5 | 187 | > 1250 | 3330 | 130 | 1280 | 
8 | VHHANENIFYCPIAIMSALA [Peptide 703.03] |  |  |  |  |  |  |  | 147 | 1110 | 63.3 | > 6250 | > 10000 | 42.9 | 333 | 
9 | CC(C)C[C@H](NC(=O)[C@@H](NC(=O)[C@H](C)NC(=O)[C@H](C)NC(=O)[C@H](CCCCN)NC(=O)[C@H](C)NC(=O)[C@H](Cc1ccccc1)NC(=O)[C@H](CCCCN)NC(=O)[C@@H](C)N)[C@@H](C)O)C(=O)N[C@@H](CCCCN)C(=O)N[C@@H](C)C(=O)N[C@@H](C)C(=O)N[C@H](C)C(N)=O [Peptide 871.01] (H-[dA]KFAKAATLKAA[dA]-NH2) |  |  |  |  |  |  |  |  |  |  |  |  |  |  | IC50 [1, 15]: 4.2 nM; IC50 [2, 16]: 14.6 nM; IC50 [3, 17]: 3.1 nM; IC50 [4, 18]: 301 nM; IC50 [5, 19]: 14.7 nM; IC50 [6, 20]: 37.5 µM; IC50 [7, 21]: 9.6 nM
10 | CC(C)C[C@H](NC(=O)[C@@H](NC(=O)[C@H](C)NC(=O)[C@H](C)NC(=O)[C@H](CCCCN)NC(=O)[C@@H](NC(=O)[C@H](Cc1ccccc1)NC(=O)[C@H](CCCCN)NC(=O)[C@@H](C)N)C(C)C)[C@@H](C)O)C(=O)N[C@@H](CCCCN)C(=O)N[C@@H](C)C(=O)N[C@@H](C)C(=O)N[C@H](C)C(N)=O [Peptide 909.02] (H-[dA]KFVKAATLKAA[dA]-NH2) |  |  |  |  |  |  |  |  |  |  |  |  |  |  | IC50 [1, 15]: 2.5 nM; IC50 [2, 16]: 5.7 nM; IC50 [3, 17]: 4.7 nM; IC50 [4, 18]: 208 nM; IC50 [5, 19]: 8 nM; IC50 [6, 20]: 5.66 µM; IC50 [7, 21]: 33.3 nM
11 | LSGSHLVEALYLVSGERGFF [Peptide 734.02] | 14.4 | 10000 | 865 | 124 | 2860 | 30 | 1020 |  |  |  |  |  |  |  | 
12 | CC(C)C[C@H](NC(=O)[C@@H](NC(=O)[C@H](C)NC(=O)[C@H](C)NC(=O)[C@H](C)NC(=O)[C@H](CCCCN)NC(=O)[C@H](Cc1ccccc1)NC(=O)[C@H](C)NC(=O)[C@@H](C)N)[C@@H](C)O)C(=O)N[C@@H](CCCCN)C(=O)N[C@@H](C)C(=O)N[C@@H](C)C(=O)N[C@H](C)C(N)=O [Peptide 871.08] (H-[dA]AFKAAATLKAA[dA]-NH2) |  |  |  |  |  |  |  |  |  |  |  |  |  |  | IC50 [1, 15]: 1.8 nM; IC50 [2, 16]: 9 nM; IC50 [3, 17]: 1.9 nM; IC50 [4, 18]: 111 nM; IC50 [5, 19]: 3.9 nM; IC50 [6, 20]: 15 µM; IC50 [7, 21]: 10 nM
13 | KYLEFISEAIIHVLHSR [Peptide 508.01] |  |  |  |  |  |  |  | 294 | 4000 | 136 | 338 | 20000 | 25 | 2500 | 
14 | CC[C@H](C)[C@H](NC(=O)[C@H](CCCNC(=N)N)NC(=O)[C@H](CO)NC(=O)[C@H](Cc1ccccc1)NC(=O)[C@@H](NC(=O)[C@H](CO)NC(=O)[C@H](CO)NC(=O)[C@H](CC(C)C)NC(=O)[C@@H]1CCCN1C(=O)[C@H](CO)NC(=O)[C@H](C)NC(=O)[C@@H](NC(=O)[C@@H](NC(=O)[C@H](CC(C)C)NC(=O)[C@@H](NC(=O)[C@@H]1CCCN1C(=O)[C@@H](N)CC(N)=O)C(C)C)[C@@H](C)O)[C@@H](C)O)[C@@H](C)CC)C(=O)O [Peptide 801.02] | 714 |  | 54.1 | 63.1 | 20000 | 300 | 6.5 |  |  |  |  |  |  |  | 
15 | DVFKELKVHHANENI [Peptide 519.00] |  |  |  |  |  |  |  | 9.6 | 118 | 40.9 | 463 | 571 | 150 | 250 | 
16 | LLVIVELIPSTSS [Peptide 778.00] | 67.6 | 1110 | 28.1 | 5000 | 2220 | 60 | 82.5 |  |  |  |  |  |  |  | 
